Laboratory results: US20050287195A1, “Transdermal drug delivery systems” (priority 1998, published 2005)

Test: In vitro skin permeation with human skin, Franz-type diffusion cells
Assay type: in vitro ADME
Settings: solvent/skin penetration enhancer DEET and/or Crotamiton, concentration below saturation, receptor at 32° C.
Protocol: Dermatomed human skin sections were mounted onto the Franz cells and transdermal drug delivery systems mounted on tape backings (1.5 cm^2) were placed on the stratum corneal surface of the skin. Each Franz cell contained 7 ml of ethanol phosphate buffered saline as the receptor medium, maintained at 32° C. At predetermined time intervals 0.7 ml of the receptor solution was sampled and an equal amount replaced. The samples were analysed by High Pressure Liquid Chromatography.

Row | Structure (SMILES) | skin mass transport
1 | C[C@]12CC[C@@H]3c4ccc(O)cc4CC[C@H]3[C@@H]1CC[C@@H]2O [Estradiol] | enhanced
2 | C#C[C@]1(OC(C)=O)CC[C@H]2[C@@H]3CCC4=CC(=O)CC[C@@H]4[C@H]3CC[C@@]21C [Norethisterone Acetate] | enhanced
